Source: PubChem BioAssay (NCI)
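1) Cells in 96-well plates. 2) Compound, 48 h, 5 concentrations. 3) Linear interpolation between surrounding doses. 4) Unreached endpoint = highest concentration. TGI is the concentration that stops growth completely.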

Tests used:
Experiment in all cases: inhibition of tumour cell growth, NCI panel, 48 h
NCI-H23 lung = test system: NCI-H23 lung
SNB-75 CNS = test system: SNB-75 CNS
HCT-116 colon = test system: HCT-116 colon
NCI/ADR-RES ovarian = test system: NCI/ADR-RES ovarian
BT-549 breast = test system: BT-549 breast
TK-10 renal = test system: TK-10 renal
KM12 colon = test system: KM12 colon
SK-MEL-2 melanoma = test system: SK-MEL-2 melanoma
HL-60(TB) leukemia = test system: HL-60(TB) leukemia
ACHN renal = test system: ACHN renal
HCT-15 colon = test system: HCT-15 colon
MCF7 breast = test system: MCF7 breast
OVCAR-8 ovarian = test system: OVCAR-8 ovarian
COLO 205 colon = test system: COLO 205 colon
HT29 colon = test system: HT29 colon
SF-295 CNS = test system: SF-295 CNS
U251 CNS = test system: U251 CNS
SN12C renal = test system: SN12C renal
SK-MEL-28 melanoma = test system: SK-MEL-28 melanoma
SK-MEL-5 melanoma = test system: SK-MEL-5 melanoma
UACC-257 melanoma = test system: UACC-257 melanoma
OVCAR-4 ovarian = test system: OVCAR-4 ovarian
NCI-H460 lung = test system: NCI-H460 lung
T-47D breast = test system: T-47D breast
MDA-N = test system: MDA-N
LOX IMVI melanoma = test system: LOX IMVI melanoma
SF-268 CNS = test system: SF-268 CNS
M14 melanoma = test system: M14 melanoma
HCC-2998 colon = test system: HCC-2998 colon
SK-OV-3 ovarian = test system: SK-OV-3 ovarian
SW-620 colon = test system: SW-620 colon
K-562 leukemia = test system: K-562 leukemia
CAKI-1 renal = test system: CAKI-1 renal
MDA-MB-231 breast = test system: MDA-MB-231 breast
SNB-19 CNS = test system: SNB-19 CNS
A549 NSCLC = test system: A549 NSCLC
UACC-62 melanoma = test system: UACC-62 melanoma
OVCAR-5 ovarian = test system: OVCAR-5 ovarian
UO-31 renal = test system: UO-31 renal
NCI-H226 lung = test system: NCI-H226 lung
786-0 renal = test system: 786-0 renal
PC-3 prostate = test system: PC-3 prostate
MALME-3M melanoma = test system: MALME-3M melanoma
DU-145 prostate = test system: DU-145 prostate
MOLT-4 leukemia = test system: MOLT-4 leukemia
IGROV1 ovarian = test system: IGROV1 ovarian
OVCAR-3 ovarian = test system: OVCAR-3 ovarian
EKVX NSCLC = test system: EKVX NSCLC
SF-539 CNS = test system: SF-539 CNS
RXF 393 renal = test system: RXF 393 renal
HS 578T breast = test system: HS 578T breast
HOP-92 NSCLC = test system: HOP-92 NSCLC
CCRF-CEM leukemia = test system: CCRF-CEM leukemia
MDA-MB-435 = test system: MDA-MB-435
A498 renal = test system: A498 renal
RPMI-8226 leukemia = test system: RPMI-8226 leukemia
HOP-62 NSCLC = test system: HOP-62 NSCLC

N#CC(c1ccccc1)N(CCCCCCN(C(=O)c1ccccc1)C(C#N)c1ccccc1)C(=O)c1ccccc1 (centres undefined)
TGI (NCI-H23 lung): 73.8 µM | TGI (SNB-75 CNS): > 100 µM | TGI (HCT-116 colon): 83.4 µM | TGI (NCI/ADR-RES ovarian): 51.2 µM | TGI (BT-549 breast): > 100 µM | TGI (TK-10 renal): 62.6 µM | TGI (KM12 colon): > 100 µM | TGI (SK-MEL-2 melanoma): 66.3 µM | TGI (HL-60(TB) leukemia): > 100 µM | TGI (ACHN renal): > 100 µM | TGI (HCT-15 colon): > 100 µM | TGI (MCF7 breast): > 100 µM | TGI (OVCAR-8 ovarian): > 100 µM | TGI (COLO 205 colon): 39.8 µM | TGI (HT29 colon): > 100 µM | TGI (SF-295 CNS): > 100 µM | TGI (U251 CNS): > 100 µM | TGI (SN12C renal): > 100 µM | TGI (SK-MEL-28 melanoma): > 100 µM | TGI (SK-MEL-5 melanoma): 32.9 µM | TGI (UACC-257 melanoma): 63.9 µM | TGI (OVCAR-4 ovarian): 91.2 µM | TGI (NCI-H460 lung): 84.2 µM | TGI (T-47D breast): > 100 µM | TGI (MDA-N): > 100 µM | TGI (LOX IMVI melanoma): > 100 µM | TGI (SF-268 CNS): > 100 µM | TGI (M14 melanoma): > 100 µM | TGI (HCC-2998 colon): 48.1 µM | TGI (SK-OV-3 ovarian): > 100 µM | TGI (SW-620 colon): > 100 µM | TGI (K-562 leukemia): > 100 µM | TGI (CAKI-1 renal): > 100 µM | TGI (MDA-MB-231 breast): > 100 µM | TGI (SNB-19 CNS): > 100 µM | TGI (A549 NSCLC): > 100 µM | TGI (UACC-62 melanoma): 77.7 µM | TGI (OVCAR-5 ovarian): > 100 µM | TGI (UO-31 renal): 46.1 µM | TGI (NCI-H226 lung): > 100 µM | TGI (786-0 renal): > 100 µM | TGI (PC-3 prostate): > 100 µM | TGI (MALME-3M melanoma): > 100 µM | TGI (DU-145 prostate): > 100 µM | TGI (MOLT-4 leukemia): > 100 µM | TGI (IGROV1 ovarian): > 100 µM | TGI (OVCAR-3 ovarian): > 100 µM | TGI (EKVX NSCLC): > 100 µM | TGI (SF-539 CNS): > 100 µM | TGI (RXF 393 renal): > 100 µM | TGI (HS 578T breast): 83.6 µM | TGI (HOP-92 NSCLC): 50.3 µM | TGI (CCRF-CEM leukemia): > 100 µM | TGI (MDA-MB-435): 73.6 µM | TGI (A498 renal): 55.9 µM

CC(=O)OC[C@H]1CN(OC(C)=O)C[C@@H](n2cc(C)c(=O)[nH]c2=O)O1
TGI (SNB-75 CNS): > 100 µM | TGI (HCT-116 colon): > 100 µM | TGI (BT-549 breast): > 100 µM | TGI (TK-10 renal): > 100 µM | TGI (KM12 colon): > 100 µM | TGI (RPMI-8226 leukemia): > 100 µM | TGI (SK-MEL-2 melanoma): > 100 µM | TGI (HL-60(TB) leukemia): > 100 µM | TGI (ACHN renal): > 100 µM | TGI (HCT-15 colon): > 100 µM | TGI (MCF7 breast): > 100 µM | TGI (OVCAR-8 ovarian): > 100 µM | TGI (COLO 205 colon): > 100 µM | TGI (SF-295 CNS): > 100 µM | TGI (U251 CNS): > 100 µM | TGI (SN12C renal): > 100 µM | TGI (SK-MEL-28 melanoma): > 100 µM | TGI (SK-MEL-5 melanoma): > 100 µM | TGI (UACC-257 melanoma): > 100 µM | TGI (OVCAR-4 ovarian): > 100 µM | TGI (NCI-H460 lung): > 100 µM | TGI (T-47D breast): > 100 µM | TGI (MDA-N): > 100 µM | TGI (SF-268 CNS): > 100 µM | TGI (M14 melanoma): > 100 µM | TGI (HCC-2998 colon): > 100 µM | TGI (SK-OV-3 ovarian): > 100 µM | TGI (SW-620 colon): > 100 µM | TGI (K-562 leukemia): > 100 µM | TGI (CAKI-1 renal): > 100 µM | TGI (MDA-MB-231 breast): > 100 µM | TGI (SNB-19 CNS): > 100 µM | TGI (A549 NSCLC): > 100 µM | TGI (UACC-62 melanoma): > 100 µM | TGI (OVCAR-5 ovarian): > 100 µM | TGI (UO-31 renal): > 100 µM | TGI (HOP-62 NSCLC): > 100 µM | TGI (NCI-H226 lung): > 100 µM | TGI (786-0 renal): > 100 µM | TGI (PC-3 prostate): > 100 µM | TGI (DU-145 prostate): > 100 µM | TGI (MOLT-4 leukemia): > 100 µM | TGI (IGROV1 ovarian): > 100 µM | TGI (EKVX NSCLC): > 100 µM | TGI (SF-539 CNS): > 100 µM | TGI (RXF 393 renal): > 100 µM | TGI (HS 578T breast): > 100 µM | TGI (MDA-MB-435): > 100 µM | TGI (A498 renal): > 100 µM
